Source: patent US9463211B2, “Skin salve for treating intertrigo” (priority 2007, dated 2016)

Tested on: intertrigo
Experiment: Topical application of the skin salve to patients suffering from intertrigo
Format: in vivo, human
Conditions: Example 2: person with diabetes, underside of breasts; before use of the skin salve
Method: In this experiment the skin salve made in Example 1 was evaluated on a person suffering from diabetes and intertrigo on the underside of their breasts. The intertrigo had caused the skin to be inflamed, burned, and was raw in some areas. This skin condition was painful and was aggravated by the patient's bra, heat, and sweat. Additionally, the intertrigo was an unsightly rash.
This patient had treated their intertrigo with a variety of over-the-counter salves and powders without success.
This patient topically applied the skin salve of this invention which was made by the procedure described in Example 1 to the inflamed skin under their breasts on two consecutive evenings after taking a bath. […]
In this experiment the skin salve made in Example 1 was evaluated on another person suffering from diabetes and intertrigo on the underside of their breasts. […]
In this experiment the skin salve made in Example 1 was evaluated on another person suffering from intertrigo on the underside of their breasts. […]
In this experiment the skin salve made in Example 1 was evaluated on a person suffering from intertrigo on the underside of their breasts. […]
In this experiment the skin salve made in Example 1 was evaluated on a person suffering from intertrigo on the underside of their breasts and the underside of their belly. […]

## CC(C)O [isopropyl alcohol]
  effect on intertrigo of the patient's earlier treatments: without any relief
